{"source": "patent US9029080B2", "about": "“Screening assay for insecticides” (priority 2008, dated 2015)", "molecular_target": "T1, ShaI/KChIP (Drosophila melanogaster, UniProt P17971)", "T1 construct": "expressed in transfected cells; subclone 18-13-20", "T1 sequence (P17971 with tags, fused parts or gaps isoform P17971-1)": "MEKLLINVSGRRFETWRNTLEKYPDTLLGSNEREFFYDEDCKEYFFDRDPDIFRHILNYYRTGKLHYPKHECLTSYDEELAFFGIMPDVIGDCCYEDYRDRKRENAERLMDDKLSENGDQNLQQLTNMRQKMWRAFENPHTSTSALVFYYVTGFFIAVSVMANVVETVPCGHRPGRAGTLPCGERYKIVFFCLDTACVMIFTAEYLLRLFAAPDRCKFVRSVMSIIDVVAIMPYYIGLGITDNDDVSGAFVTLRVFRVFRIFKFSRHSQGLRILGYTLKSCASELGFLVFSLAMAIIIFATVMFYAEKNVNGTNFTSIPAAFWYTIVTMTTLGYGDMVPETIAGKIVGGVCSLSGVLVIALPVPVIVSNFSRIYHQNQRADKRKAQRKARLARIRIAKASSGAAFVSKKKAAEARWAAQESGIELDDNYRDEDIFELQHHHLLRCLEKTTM", "experiment": "Whole-cell patch clamp on ShaI/KChIP 20 cells", "type": "cell-based", "conditions": "100 uM [final], incubation five minutes", "protocol": "Chinese hamster ovary (CHO) cells transfected with (a) a Drosophila ShaI gene (b) a Drosophila ShaI pore mutant gene and (c) a Drosophila ShaI+KChIP gene, and were used for all measurements. Cells were plated in 35 mm Petri dishes 2-6 hours before the experiment.\nData were acquired and analyzed using pClamp software (version 9.0.1.16). The whole-cell configuration of the patch-clamp technique was used to voltage clamp cells at room temperature (22-25° C.). Pipettes were pulled from borosilicate glass capillaries (#8250, Garner Glass, Claremont, Calif.) using a DMZ Universal Puller (Zeitz, Munich, Germany) and had resistances of 1-2 MOhm when filled with pipette solution and measured in bath solution. The liquid junction potential between bath and pipette solution was always compensated before the formation of a gigaohm seal.\nMembrane current was measured under whole-cell clamp, sampled at 2 kHz and filtered at 1 kHz by an Axoclamp 200B (Axon Instruments). […]\nTo study ShaI currents on CHO cells, cells were held at −70 mV and a family of 500 ms test voltage pulses was applied starting from −70 to +70 mV, or +100 mV, in 10 mV increments. The amplitude, as measured for the current-voltage relationship, was defined as the maximal current at a given membrane potential. […]\nFIG. 13: ShaI/KChIP inhibited by arachidonic acid. […] Pre- and post-compound currents were measured under whole-cell clamp. […]", "data": [{"smiles": "CCCCC/C=C\\C/C=C\\C/C=C\\C/C=C\\CCCC(=O)O", "note": "[arachidonic acid]", "values": [{"measurement": "inhibition of total ShaI/KChIP current", "result": "Complete inhibition"}]}]}
